# “Also recorded” adds a separate entry of the source.
# What was measured:
# [1] = system: HPV+ (SCC47, SCC090, SCC104, SCC152) and HPV- (SCC19, SCC29, SCC49, SCC84) HNSCC cell lines; assay: MTT cell viability, HNSCC panel; format: cell-based
# Experimental: While SAR studies using the SCC104 cell line provided evidence of the activity of the analogs, further studies were conducted to assess not just the potency, but also the selectivity. As a step towards that goal, the efficacy of GA-OH was evaluated in a panel containing both HPV^+ and HPV^− HNSCC cell lines using MTT cell viability assays. Four HPV^+ cell lines (SCC47, SCC090, SCC104, SCC152) and four HPV^− cell lines (SCC19, SCC29, SCC49, SCC84) were utilized. GA-OH behaved dose dependently in cell lines both with or without HPV. […] FIGS. 7A-7C are graphical representations of the sensitivity of HPV^+ cell lines and HPV^− cell lines to GA-OH-mediated growth inhibition. FIG. 7A is a graphical representation of the cell growth inhibition of HNSCC HPV^+ and HPV^− cell lines by GA-OH (+ and closed shapes represent HPV^+ cell lines and − and open shapes the HPV^− cell lines). […] These cells were good controls, as HPV is an established causative agent in CC carcinogenesis. Two HPV^+ cell lines, SiHa and CaSki were selected as the positive controls and the Saos-2 cell line was used as an HPV-negative control. […] FIG. 7B is a graphical representation of the cell growth inhibition of cervical cancer HPV^+ and HPV^− cell lines by GA-OH. HPV^+ cell lines display higher sensitivity than do HPV^− cell lines as shown by the leftwards shift of the HPV^+ curves (SCC47, 90, 104, 152 in FIG. 7A and SiHa and CaSki in FIG. 7B).
# All working concentrations were diluted in PBS to the desired concentration before use. To test the effect of gambogic acid and/or its derivatives on cell viability, all cell lines were seeded at 2×10^4 per well in 96-well plates and allowed to adhere overnight. Various concentrations of the analogues were added and the cells incubated at 37° C. for 24 hr. Viability was then measured using the MTT assay, performed as described previously. […] Cell viability and potency were assessed from % inhibition relative to the vehicle control, and IC50 dose curves were generated using GraphPad Prism.
# [2] = system: HPV- (SCC19, SCC29) and HPV+ (SCC47, SCC104, SCC152) HNSCC cell lines; assay: Sensitization of HNSCC cell lines to photon radiation; format: cell-based; details: radiation 0-4Gy followed by inhibitor; DER10
# Experimental: The dose enhancement ratio for 10% survival (DER10) was calculated as follows: DER10=(Dose correlated with 10% survival fraction in radiation-treated cells)/(Dose correlated with 10% survival fraction in radiation and inhibitor treated cells).
# CCDP, Cetuximab, and GA-OH were evaluated for their ability to sensitize HNSCC cell lines to photon radiation.
# Colonies were counted after 14-21 days and normalized to vehicle control and survival analysis was performed.
# Sensitization of an additional HPV^+ cell line to radiation by CDDP, Cetuximab and GA-OH was evaluated.
substance,measurement,setting,value
30-hydroxygambogic acid [GA-OH],potency and selectivity for HPV+ versus HPV- cells,[1],more potent and selective
same,"cell growth inhibition, sensitivity of HPV+ versus HPV- cell lines",[1]; MTT,displayed higher sensitivity
same,sensitization to photon radiation,[2],most sensitization in HPV+ cell lines; also recorded: less than that of CDDP but greater than cetuximab
